This note sets out measurements from PubChem BioAssay (NCI).

Molecules are shown by their SMILES. Values joined by “and” are separate entries in the source; they are usually repeats but may differ in a detail not shown here. Equal entries are not always repeated.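 Where inhibition never reached the appropriate level, the endpoint shown equals the highest concentration tested. Otherwise, values were interpolated linearly from a five-concentration, 48-hour dose response in 96-well plates. At the GI50, growth is halved. Definition used: TGI = concentration required for complete inhibition of growth.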

One experiment has as its system M14 melanoma. Description: NCI-60 cell line screen, 48 h.
As for `CC(=O)Oc1ccccc1C(=O)Nc1ncc([N+](=O)[O-])s1`, the GI50 was 2.54 µM; the TGI is 7.23 µM and 55.9 µM.
Regarding `CCN(Cc1ccccc1C)c1ccc(CO)c(Cl)c1`, the GI50 is 15.3 µM and the TGI came out at 31.2 µM.
In turn, `O=C(O)CC(NC(=O)CP(=O)(O)O)C(=O)O` (stereo not given) displayed a TGI greater than 10000 µM.
As to `COC(=O)[C@@H](C)C[C@H](Cc1ccccc1)NC(=O)c1csc([C@@H](C[C@H](C(C)C)N(C)C(=O)[C@@H](NC(=O)[C@H]2CCCCN2C)C2CCCCC2)OC(C)=O)n1`, the GI50 is 0.000304 µM and < 0.0025 µM; the TGI is 0.00312 µM and < 0.0025 µM.
With `NC(=O)OCCn1cc(-c2nc(-c3c[nH]c4ncccc34)cs2)c2ccccc21`, the GI50 is 1.33 µM and the TGI stood at 4.53 µM.
For the compound `Cn1cc(C2=C(c3cccc(Br)c3)C(=O)NC2=O)c2ccccc21`, the GI50 was 17.1 µM and the TGI is greater than 25 µM.
For `COc1ccc(-c2ccc(-c3ccc(C(=N)N)s3)s2)cc1`, in that order: 0.18 µM and 0.344 µM.
In turn, `OCc1ccn2c1[C@@H](O)CC2` showed a TGI greater than 100 µM.
As to `Cc1[nH]c(/C=C2\C(=O)Nc3ccccc32)c(C)c1CCC(=O)O`, the GI50 is 17 µM; the TGI was 49.3 µM and 58.8 µM.
Turning to `O=C(c1ccc(/C=C/c2n[nH]c3ccccc23)cc1)N1CCNCC1`, the GI50 is 1.66 µM and 3.75 µM; the TGI was 3.22 µM and 16.9 µM.
As for `CCOC(=O)c1c(NC(=O)c2cccc(C(F)(F)F)c2)sc2c(CN(C)C)c(O)ccc12`, the GI50 is 1.89 µM and the TGI came to 3.53 µM.
For `O=C(Nc1ccc(-n2ccc3c(NC(=O)c4ccccc4)nccc32)cc1)Nc1ccc(Cl)c(Cl)c1`, in that order: 1.47 µM and 2.93 µM.
In the same order, the values of `Cc1cc(C)c(NC(=O)c2sc3nc4c(cc3c2N)CN(Cc2ccccc2)CC4)c(C)c1` are 2.89 µM and 31.5 µM.
In the same order, the values of `O=C1NC(=NCCc2cccc(Cl)c2)S/C1=C\c1ccc2ncccc2c1` are greater than 25 µM and greater than 25 µM.
Consider `C=C1C(=O)O[C@H]2[C@H]1CC/C(COC(=O)/C=C\C(=O)NCc1ccc(Cn3c(=O)sn(CCCC)c3=O)cc1)=C\CC[C@@]1(C)O[C@@H]21`, for which the GI50 was 0.678 µM and the TGI was 2.06 µM.

Another experiment deals with A498 renal. The experiment is described as follows: NCI-60 cell line screen, 48 h.
For the compound `CC(=O)Oc1ccccc1C(=O)Nc1ncc([N+](=O)[O-])s1`, the GI50 was 0.245 µM.
With `CCN(Cc1ccccc1C)c1ccc(CO)c(Cl)c1`, the GI50 was 0.0283 µM and the TGI is 0.114 µM.
In the case of `O=C(O)CC(NC(=O)CP(=O)(O)O)C(=O)O` (stereo not given), the TGI was greater than 9870 µM.
With `COC(=O)[C@@H](C)C[C@H](Cc1ccccc1)NC(=O)c1csc([C@@H](C[C@H](C(C)C)N(C)C(=O)[C@@H](NC(=O)[C@H]2CCCCN2C)C2CCCCC2)OC(C)=O)n1`, the GI50 was 0.000272 µM and 0.0025 µM.
As for `NC(=O)OCCn1cc(-c2nc(-c3c[nH]c4ncccc34)cs2)c2ccccc21`, the GI50 is 0.905 µM and the TGI is 2.87 µM.
As for `Cn1cc(C2=C(c3cccc(Br)c3)C(=O)NC2=O)c2ccccc21`, the GI50 is 4.51 µM and the TGI was 17.9 µM.
For `COc1ccc(-c2ccc(-c3ccc(C(=N)N)s3)s2)cc1`, in that order: 1.1 µM and 2.41 µM.
The compound `OCc1ccn2c1[C@@H](O)CC2` returned a TGI greater than 100 µM.
In the case of `Cc1[nH]c(/C=C2\C(=O)Nc3ccccc32)c(C)c1CCC(=O)O`, the GI50 is 21.4 µM; the TGI is 61.7 µM and > 100 µM.
`O=C(c1ccc(/C=C/c2n[nH]c3ccccc23)cc1)N1CCNCC1`: the GI50 is 2 µM and 7.83 µM; the TGI was 8.87 µM and 21.5 µM.
Consider `CCOC(=O)c1c(NC(=O)c2cccc(C(F)(F)F)c2)sc2c(CN(C)C)c(O)ccc12`, for which the GI50 was 12.4 µM and the TGI is 34.5 µM.
`O=C(Nc1ccc(-n2ccc3c(NC(=O)c4ccccc4)nccc32)cc1)Nc1ccc(Cl)c(Cl)c1`: the GI50 was 2.58 µM and the TGI was 7.58 µM.
For `Cc1cc(C)c(NC(=O)c2sc3nc4c(cc3c2N)CN(Cc2ccccc2)CC4)c(C)c1`, the GI50 is 1.31 µM and the TGI is 7.71 µM.
`O=C1NC(=NCCc2cccc(Cl)c2)S/C1=C\c1ccc2ncccc2c1`: the GI50 is greater than 25 µM and the TGI was greater than 25 µM.
Turning to `C=C1C(=O)O[C@H]2[C@H]1CC/C(COC(=O)/C=C\C(=O)NCc1ccc(Cn3c(=O)sn(CCCC)c3=O)cc1)=C\CC[C@@]1(C)O[C@@H]21`, the GI50 was 1.18 µM and the TGI turned out to be 2.44 µM.

A further experiment has as its system SF-268 CNS. Description: NCI-60 cell line screen, 48 h.
Turning to `CC(=O)Oc1ccccc1C(=O)Nc1ncc([N+](=O)[O-])s1`, the GI50 is 3.35 µM and the TGI is greater than 79.7 µM.
For the compound `CCN(Cc1ccccc1C)c1ccc(CO)c(Cl)c1`, the GI50 was 16.1 µM and the TGI is 31.8 µM.
For `O=C(O)CC(NC(=O)CP(=O)(O)O)C(=O)O` (stereo not given), in that order: 95.8 µM and greater than 10000 µM.
As to `COC(=O)[C@@H](C)C[C@H](Cc1ccccc1)NC(=O)c1csc([C@@H](C[C@H](C(C)C)N(C)C(=O)[C@@H](NC(=O)[C@H]2CCCCN2C)C2CCCCC2)OC(C)=O)n1`, the GI50 was 0.00375 µM and 0.0025 µM; the TGI is greater than 25 µM.
As to `NC(=O)OCCn1cc(-c2nc(-c3c[nH]c4ncccc34)cs2)c2ccccc21`, the GI50 was 1.48 µM and the TGI stood at 6.77 µM.
For the compound `Cn1cc(C2=C(c3cccc(Br)c3)C(=O)NC2=O)c2ccccc21`, the GI50 is 15.5 µM and the TGI was greater than 25 µM.
For `COc1ccc(-c2ccc(-c3ccc(C(=N)N)s3)s2)cc1`, in that order: 0.211 µM and 0.451 µM.
Consider `OCc1ccn2c1[C@@H](O)CC2`, for which the TGI is greater than 100 µM.
Regarding `Cc1[nH]c(/C=C2\C(=O)Nc3ccccc32)c(C)c1CCC(=O)O`, the GI50 was 25.1 µM and the TGI is greater than 100 µM.
As to `O=C(c1ccc(/C=C/c2n[nH]c3ccccc23)cc1)N1CCNCC1`, the GI50 was 8.61 µM and 4.34 µM; the TGI is > 10 µM and 18.9 µM.
As for `CCOC(=O)c1c(NC(=O)c2cccc(C(F)(F)F)c2)sc2c(CN(C)C)c(O)ccc12`, the GI50 was 4.69 µM and the TGI was determined as 24.1 µM.
In the case of `O=C(Nc1ccc(-n2ccc3c(NC(=O)c4ccccc4)nccc32)cc1)Nc1ccc(Cl)c(Cl)c1`, the GI50 is 1.26 µM and the TGI amounted to 5.97 µM.
With `Cc1cc(C)c(NC(=O)c2sc3nc4c(cc3c2N)CN(Cc2ccccc2)CC4)c(C)c1`, the GI50 is 6.93 µM and the TGI stood at 64.8 µM.
Regarding `O=C1NC(=NCCc2cccc(Cl)c2)S/C1=C\c1ccc2ncccc2c1`, the GI50 was greater than 25 µM and the TGI was greater than 25 µM.
Regarding `C=C1C(=O)O[C@H]2[C@H]1CC/C(COC(=O)/C=C\C(=O)NCc1ccc(Cn3c(=O)sn(CCCC)c3=O)cc1)=C\CC[C@@]1(C)O[C@@H]21`, the GI50 is 1.39 µM and the TGI was determined as 2.78 µM.

The next experiment deals with SF-539 CNS. The experiment is described as follows: NCI-60 cell line screen, 48 h.
As for `CC(=O)Oc1ccccc1C(=O)Nc1ncc([N+](=O)[O-])s1`, the GI50 was 2.9 µM; the TGI is 20.6 µM and > 100 µM.
In the case of `CCN(Cc1ccccc1C)c1ccc(CO)c(Cl)c1`, the GI50 is 15 µM and the TGI is 29.5 µM.
Regarding `O=C(O)CC(NC(=O)CP(=O)(O)O)C(=O)O` (stereo not given), the GI50 was 89.5 µM and the TGI is greater than 10000 µM.
Take `COC(=O)[C@@H](C)C[C@H](Cc1ccccc1)NC(=O)c1csc([C@@H](C[C@H](C(C)C)N(C)C(=O)[C@@H](NC(=O)[C@H]2CCCCN2C)C2CCCCC2)OC(C)=O)n1`: the GI50 was 0.00211 µM and 0.0025 µM; the TGI was 0.00619 µM and 0.00859 µM.
For the compound `NC(=O)OCCn1cc(-c2nc(-c3c[nH]c4ncccc34)cs2)c2ccccc21`, the GI50 is 1.61 µM and the TGI amounted to 4.5 µM.
`Cn1cc(C2=C(c3cccc(Br)c3)C(=O)NC2=O)c2ccccc21`: the GI50 was 12.5 µM and the TGI was greater than 25 µM.
In the same order, the values of `COc1ccc(-c2ccc(-c3ccc(C(=N)N)s3)s2)cc1` are 0.188 µM and 0.346 µM.
`OCc1ccn2c1[C@@H](O)CC2` gave a TGI greater than 100 µM.
For the compound `Cc1[nH]c(/C=C2\C(=O)Nc3ccccc32)c(C)c1CCC(=O)O`, the GI50 was 12.3 µM and the TGI came to 42.2 µM.
Consider `O=C(c1ccc(/C=C/c2n[nH]c3ccccc23)cc1)N1CCNCC1`, for which the GI50 was 2.18 µM and 1.83 µM; the TGI was 6.74 µM and 9.92 µM.
Regarding `CCOC(=O)c1c(NC(=O)c2cccc(C(F)(F)F)c2)sc2c(CN(C)C)c(O)ccc12`, the GI50 is 3.41 µM and the TGI was 12.4 µM.
For `O=C(Nc1ccc(-n2ccc3c(NC(=O)c4ccccc4)nccc32)cc1)Nc1ccc(Cl)c(Cl)c1`, in that order: 0.557 µM and 2.41 µM.
As for `Cc1cc(C)c(NC(=O)c2sc3nc4c(cc3c2N)CN(Cc2ccccc2)CC4)c(C)c1`, the GI50 is 2.44 µM and the TGI amounted to 7.79 µM.
For `O=C1NC(=NCCc2cccc(Cl)c2)S/C1=C\c1ccc2ncccc2c1`, in that order: greater than 25 µM and greater than 25 µM.
With `C=C1C(=O)O[C@H]2[C@H]1CC/C(COC(=O)/C=C\C(=O)NCc1ccc(Cn3c(=O)sn(CCCC)c3=O)cc1)=C\CC[C@@]1(C)O[C@@H]21`, the GI50 was 1.18 µM and the TGI was determined as 2.42 µM.

For a further experiment, the system named is RXF 393 renal. Description: NCI-60 cell line screen, 48 h.
Turning to `CC(=O)Oc1ccccc1C(=O)Nc1ncc([N+](=O)[O-])s1`, the GI50 was 2.06 µM; the TGI is 13.1 µM and 29.7 µM.
Turning to `CCN(Cc1ccccc1C)c1ccc(CO)c(Cl)c1`, the GI50 is 6.3 µM and the TGI was determined as 23.8 µM.
For `O=C(O)CC(NC(=O)CP(=O)(O)O)C(=O)O` (stereo not given), in that order: 90.5 µM and greater than 10000 µM.
`COC(=O)[C@@H](C)C[C@H](Cc1ccccc1)NC(=O)c1csc([C@@H](C[C@H](C(C)C)N(C)C(=O)[C@@H](NC(=O)[C@H]2CCCCN2C)C2CCCCC2)OC(C)=O)n1`: the GI50 was 0.00103 µM.
As for `NC(=O)OCCn1cc(-c2nc(-c3c[nH]c4ncccc34)cs2)c2ccccc21`, the GI50 is 1.78 µM and the TGI is 5.56 µM.
In the same order, the values of `Cn1cc(C2=C(c3cccc(Br)c3)C(=O)NC2=O)c2ccccc21` are 8.3 µM and greater than 25 µM.
Regarding `COc1ccc(-c2ccc(-c3ccc(C(=N)N)s3)s2)cc1`, the GI50 is 1.26 µM and the TGI came to 3.05 µM.
Take `OCc1ccn2c1[C@@H](O)CC2`: the TGI was greater than 100 µM.
As for `Cc1[nH]c(/C=C2\C(=O)Nc3ccccc32)c(C)c1CCC(=O)O`, the GI50 is 19.2 µM; the TGI is 63.3 µM and 90.5 µM.
Regarding `O=C(c1ccc(/C=C/c2n[nH]c3ccccc23)cc1)N1CCNCC1`, the GI50 is 2.66 µM and 1.99 µM; the TGI is > 10 µM and 6.94 µM.
On to `CCOC(=O)c1c(NC(=O)c2cccc(C(F)(F)F)c2)sc2c(CN(C)C)c(O)ccc12`, for which the GI50 was 1.81 µM and the TGI turned out to be 3.76 µM.
As to `O=C(Nc1ccc(-n2ccc3c(NC(=O)c4ccccc4)nccc32)cc1)Nc1ccc(Cl)c(Cl)c1`, the GI50 was 0.624 µM and the TGI amounted to 1.96 µM.
As for `Cc1cc(C)c(NC(=O)c2sc3nc4c(cc3c2N)CN(Cc2ccccc2)CC4)c(C)c1`, the GI50 was 2.45 µM and the TGI was determined as 18.5 µM.
Turning to `O=C1NC(=NCCc2cccc(Cl)c2)S/C1=C\c1ccc2ncccc2c1`, the GI50 was greater than 25 µM and the TGI is greater than 25 µM.
Turning to `C=C1C(=O)O[C@H]2[C@H]1CC/C(COC(=O)/C=C\C(=O)NCc1ccc(Cn3c(=O)sn(CCCC)c3=O)cc1)=C\CC[C@@]1(C)O[C@@H]21`, the GI50 is 0.547 µM and the TGI stood at 1.79 µM.
